Measured values published in article PMC8412337, “Alpha-single chains of collagen type VI inhibit the fibrogenic effects of triple helical collagen VI in hepatic stellate cells” (PLoS ONE, 2021).

How the values were obtained:
[1] = system: CVI-induced proliferation of CFSC; test: Inhibition of CVI-induced proliferation by α3(VI)-derived 30-mer peptides, [3H]-thymidine incorporation; format: cell-based, rat; conditions: serum-starved CFSC; 100-fold molar excess of 30-mer peptide compared to CVI; 24 h; n = 4; p<0.05
Protocol: (§1) 5x10^3CFSC in 100 μl 10% FBS were seeded into a 96-well flat-bottom tissue culture plate (Nunc, Roskilde, Denmark). After 24 hours, medium was completely removed, and cells were rinsed with 200 μl phosphate-buffered saline and 100 μl standard medium containing only 0.25% FBS were added. Cells were cultured for additional 24 h prior to treatment. Synchronized microcultures in 96-well plates were treated for 2 hours in reduction medium. When appropriate, the reduction medium was supplemented with 40 mg/l of α1(VI), α2(VI) or α3(VI). Then, 30 mg/l CVI or CI as control were added and cells were incubated for 24 h after which [^3H]-thymidine was added for additional 24 h. To assess effects of α3(VI)-derived 30-mer peptides on CVI-induced proliferation of CFSC, the reduction medium was supplemented with a 100-fold molar excess of the respective 30-mer peptides compared to CVI. [^3H]-thymidine incorporation was measured as described before. Cells treated with 150 mmol/l HAc or grown in 10% FBS served as negative and positive controls, respectively. During the last 4 hours of treatment, all cultures received 18.5 kBq [^3H]-thymidine (Amersham, Freiburg, Germany). Cells were fixed with 10% trichloroacetic acid and lysed by 200 mmol/l NaOH. After neutralization with 800 mmol/l HCl, lysates were collected to a glassfibre mat and the de-novo DNA synthesis was assessed by liquid scintillation (LKB Wallac, Bromma, Sweden) and the radioactive decay was counted (for) a minute (cpm).

[2] = system: primary rat HSC; test: FACS analysis of apoptosis (propidium iodide DNA content); format: cell-based; conditions: serum-starved primary rat HSC; text: within 24 hours, Fig 1C legend: 48 h; propidium iodide; three independent experiments
Protocol: Activated HSC (third passage) were serum starved for 24 h in standard medium without FBS (starving medium), followed by dissociation with 500 μl 0.05% trypsin-EDTA (Biochrom, Berlin, Germany) and neutralization with 30 ml starving medium containing 1 g/l soybean trypsin inhibitor and 1 g/l ovalbumin. Alternatively, cells were scraped carefully with a cell-scraper (Costar, Cambridge, MA, USA) to exclude any potential effect of trypsin. After centrifugation at 800 x g for 10 min, cells were washed twice with 20 ml PBS (w/o Ca^2+, Mg^2+; Biochrom, Berlin, Germany), resuspended in starving medium and plated at a density of 1.5-2x10^6 in 1.7 ml starving medium in 6-well plates (NUNC, Wiesbaden, Germany). Cells were then treated with starving medium, soluble CI or CVI (both at a final concentration of 30 mg/l), or 10% FBS. For quantification of spreading, cells that had attached were counted 12 hours after plating and spreading efficiency was determined as percentage of plated cells in each group. De-novo DNA synthesis and apoptosis were assessed by morphological criteria, Cell death detection ELISA and FACS analysis as described below. […] After blocking the cells 1h with DMEM+1% FBS, the cells were incubated with primary antibodies against a-actin (Sigma-Aldrich, Taufkirchen, Germany, #A2547; dilution 1:200) and GFAP (Sigma-Aldrich, #G9269; dilution 1:20) followed by a washing step with PBS and the incubation with fluorescence-labeled secondary antibodies (Alexa Fluor 546 & Alexa Fluor 488, Molecular Probes, Eugene, USA, #A11030 & #A11034; dilution 1:100). […] Cells were analyzed by fluorescence microscopy (Zeiss, Jena, Germany; Kodak Ektachrome P1600 and a quantitative staining analysis was performed using Image J software (version 1.50i; National Institutes of Health, Bethesda, […], USA).
10^5 of freshly set cells were treated with starving medium, CI, CVI or 10% FBS for 24 or 48 hours as described before. […] Fixed cells were stained with propidium iodide (50 mg/l) in a final volume of 1 ml before being subjected to fluorescence activated cell sorting (FACS) analysis.

[3] = system: Bax and Bcl-2 in activated HSCs; test: Western-blot analysis of Bax and Bcl-2; format: cell-based, rat; conditions: 24 hours culture after serum starvation; densitometry; three independent experiments
Protocol: Dislodged cells were centrifuged at 800 x g/10 min and lysed with 100 μl lysis buffer. The protein concentration was determined using NanoOrange® Protein Quantitation Kit (Life Technologies) according to the manufacturer’s instructions. Briefly, protein solutions were mixed with the diluted NanoOrange reagent in 1.5 ml polypropylene tubes and heated at 95°C for 10 min in a thermomixer (Peqlab, Erlangen, Germany). Tubes were centrifuged and 200 μl of each sample were transferred to a black 96 well flat-bottom plate (Greiner BioOne, Frickenhausen, Germany). The emitted fluorescence was assessed at 570 nm in a SpectraMax Gemini EM (Molecular Devices, Biberach an der Riß, Germany). Protein concentrations were calculated from a bovine serum albumin standard curve. Equivalent amounts (10–50 μg) of protein were used in […]. Sample buffer (1:1) was added and the aliquots (20 μl final volume) were boiled for 5 min and subjected to 12% SDS-PAGE. After blocking for 1 h at room temperature in 10 mmol Tris-HCl, pH 7.5, 100 mmol NaCl, containing 0.1% Tween 20 and 3% bovine serum albumine (BSA), nitrocellulose-membranes were incubated either with polyclonal rabbit anti-rat antibodies to Bax (1:1000, sc-493), Bcl-2 (1:1000, sc783, both Santa Cruz, Santa Cruz, USA), α-actin (1:4000, A2547, Sigma) or β-actin (1:10,000, A5441, Sigma). Membranes were then washed in 10 mmol Tris-HCl, 100 mmol NaCl, 0.1% Tween 20, pH 7.5, and incubated with anti-rabbit IgG coupled to peroxidase (1:1000, A4416, Sigma) for 1 h at room temperature or directly developed (RC20H). Bands were detected with the ECL chemiluminescence reagent (Amersham-Pharmacia, Freiburg, Germany). After stripping in 0.1 M glycin-HCl, pH 2, for 20 min at room temperature, membranes were reprobed with appropriate primary and secondary antibodies. Band intensities were analyzed by densitometry and normalized to β-actin.

[4] = system: primary rat HSC; test: Cell Death Detection ELISA (oligonucleosomal DNA fragments); format: cell-based; conditions: OD of sample divided by OD of 10% FBS group, three independent experiments
Protocol: 10^5 cells were seeded in 6-well plates and treated with starving medium or medium plus CI, CVI or 10% FBS. After 24 or 48 h floating and adherent cells were pooled, and lysed with 500 μl of 1% SDS, 10 mM Tris, pH 7.4 (lysis buffer), for 30 min at 4°C. Lysed cells were transferred to 1.5 ml Eppendorf tubes and centrifuged at 13,000 rpm for 20 min, to separate low molecular weight DNA (oligonucleosome-sized fragments derived from apoptotic cells) from high molecular weight DNA (from viable cells). 400 μl of the supernatant containing oligonucleosomes were transferred to another Eppendorf tube and diluted 1:5 with lysis buffer. 100 μl aliquots were used for the Cell Death Detection ELISA, which was performed according to the manufacturer’s instructions (Boehringer Mannheim, Germany). In brief, antibodies against histones were coated onto 96-wells, 100 μl lysate-samples containing oligonucleotides and histones were added and incubated for one hour. After washing, wells were incubated with anti-double strand DNA antibody coupled to peroxidase for one hour. After reaction with peroxidase substrate, absorbance was measured at 405 nm using an ELISA reader. Background values (lysis-buffer alone) were subtracted, and results are shown as enrichment factor [enrichment factor: OD (optical density) of the sample (apoptotic cells) divided by the OD of the corresponding control (viable cells, 10% FBS-group). A defined positive control was prepared using a hypertonic buffer, containing 10 mM Tris, 400 mM NaCl, 5 mM CaCl2 and 10 mM MgCl2, instead of starving medium.

[5] = system: primary rat HSCs; test: [3H]-thymidine incorporation, de-novo DNA synthesis; format: cell-based; conditions: primary rHSCs; CVI at 10 μg/ml; within 24 hours; three independent experiments
[6] = system: CFSC; test: Fibrosis-associated gene expression, quantitative real-time PCR; format: cell-based, rat
Protocol: 30 mg/l CVI, 133 mg/l of the monomeric alpha chains of CVI and/or TGF-β (2 ng/ml) were added after 24 h. […] Reverse transcribed complementary DNA templates were amplified by quantitative real-time polymerase chain reaction (PCR; Roche Diagnostics, Mannheim, Germany) using fluorogenic probes labeled with 6-carboxy-fluorescein and 6-carboxy-tetramethylrhodamin (Sigma- Genosys, Steinheim, Germany) and primer pairs (Invitrogen, Karlsruhe, Germany) specific for fibrosis-associated genes (for sequences see S2 Table). Gene expressions were normalized to glyceraldehyde phosphate dehydrogenase (GAPDH).

[7] = system: 10% FBS-induced proliferation of HSC; test: Inhibition of 10% FBS-induced proliferation by alpha single chains, [3H]-thymidine incorporation; format: cell-based, rat; conditions: cells grown in 10% FBS, Fig 4A
Protocol: as §1

[8] = system: CVI-induced proliferation of HSC; test: Inhibition of CVI-induced proliferation by alpha single chains, [3H]-thymidine incorporation; format: cell-based, rat; conditions: 40 mg/l single chain, then 30 mg/l CVI; 24 h; primary rHSCs, n = three; Fig 4A legend: CFSC, n = 4
Protocol: as §1

[9] = CFSC, medium containing 0.2% FBS, S3 Fig, one out of two independent experiments

“GAPGERGRTGPLGRKGEPGEPGPKGGIGNP [B6, α3(VI)-derived synthetic 30-mer peptide]” was tested. Which “inhibition of CVI-induced proliferation” value [1] did it give?
Its value is “no or weaker inhibitory activities”.

How did the “inhibition of CVI-induced proliferation” value [1] turn out when “RDGVGSEGRRGKKGERGFPGYPGPKGNPGE [C2, α3(VI)-derived synthetic 30-mer peptide]” was run?
The value was “strong growth inhibitory effects”.

How did the “inhibition of CVI-induced proliferation” value [1] turn out when “PPGLIGEQGISGPRGSGGARGAPGERGRTG [B5, α3(VI)-derived synthetic 30-mer peptide]” was run?
The value was “no or weaker inhibitory activities”.

For “VNGTQGFQGCPGQRGVKGSRGFPGEKGEVG [A3, α3(VI)-derived synthetic 30-mer peptide]”, which “inhibition of CVI-induced proliferation” value [1] is on record?
The value was “strong growth inhibitory effects”.

Which “inhibition of CVI-induced proliferation” value [1] does the source give for “GIRGRRGNSGPPGIVGQKGRPGYPGPAGPR [C4, α3(VI)-derived synthetic 30-mer peptide]” here?
The value was “strong growth inhibitory effects”.

Which “percentage of apoptotic cells (FACS)” value [2] does the source give for “CI: Human collagen I isolated from placentas by pepsin digestion; served as a control” here?
The value was 80%.

And the “Bax to Bcl-2 ratio” value [3]?
The value was 7.0.

And the “enrichment factor of oligonucleosomal fragments” value ([4]; after 24 hours)?
Its value is 5.

And the “enrichment factor of oligonucleosomal fragments” value ([4]; after 48 hours)?
Its value is 30.

And the “de-novo DNA synthesis ([3H]-thymidine incorporation)” value [5]?
Its value is “little DNA incorporation”.

Which “inhibition of CVI-induced proliferation” value [1] does the source give for “DGYRGYPGDEGGPGERGPPGVNGTQGFQGC [A2, α3(VI)-derived synthetic 30-mer peptide]” here?
Its value is “no or weaker inhibitory activities”.

Which “inhibition of CVI-induced proliferation” value [1] does the source give for “GNPGQDSQERGPKGETGDLGPMGVPGRDGV [B1, α3(VI)-derived synthetic 30-mer peptide]” here?
Its value is “strong growth inhibitory effects”.

For “GFPGEKGEVGEIGLDGLDGEDGDKGLPGSS [A4, α3(VI)-derived synthetic 30-mer peptide]”, which “inhibition of CVI-induced proliferation” value [1] is on record?
The value was “strong growth inhibitory effects”.

Which results are given for “α1(VI): monomeric alpha 1 single chain of collagen VI isolated from human placentas”?
effect on CVI-induced expression of αSMA, CI and TGF-β ([6]; serum-starved CFSC, 30 mg/l CVI plus 133 mg/l monomeric alpha chain, 24 h, n = 4): some inhibitory effects; effect on 10% FBS-induced proliferation [7]: had no effect; inhibition of DNA synthesis in the presence of CVI [8]: did not show any effect

Which “time after which CI expression increased” value [6, 9] does the source give for TGF-β [reference compound] here?
Its value is ~ 8 h.

What about the “time of maximum CI expression” value [6, 9] of the same substance?
Its value is ~ 24 h.

And the “reduction of the expression of MMP-3” value ([6]; serum-starved CFSC, 24 h, TGF-β 2 ng/ml, CVI 30 mg/l, qPCR normalized to GAPDH)?
Its value is ~ 70%.

Which “inhibition of CVI-induced proliferation” value [1] does the source give for “DKGPRGEKGERGDVGIRGDPGNPGQDSQER [A6, α3(VI)-derived synthetic 30-mer peptide]” here?
Its value is “no or weaker inhibitory activities”.

For “DGDKGLPGSSGEKGNPGRRGDKGPRGEKGE [A5, α3(VI)-derived synthetic 30-mer peptide]”, which “inhibition of CVI-induced proliferation” value [1] is on record?
Its value is “no or weaker inhibitory activities”.
